Results as given in PubChem BioAssay (NCI).
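Method: 48-hour compound exposure of cells in 96-well plates, five concentrations, linear interpolation of endpoints. Here, GI50 denotes the concentration required for 50% inhibition of growth. TGI: concentration producing complete growth inhibition.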

Key:
Assay in all cases: growth of human tumour cells (NCI), 48 h
786-0 renal = tested on: 786-0 renal
A498 renal = tested on: A498 renal
A549 NSCLC = tested on: A549 NSCLC
ACHN renal = tested on: ACHN renal
CAKI-1 renal = tested on: CAKI-1 renal
CCRF-CEM leukemia = tested on: CCRF-CEM leukemia
COLO 205 colon = tested on: COLO 205 colon
DU-145 prostate = tested on: DU-145 prostate
EKVX NSCLC = tested on: EKVX NSCLC
HCC-2998 colon = tested on: HCC-2998 colon
HCT-116 colon = tested on: HCT-116 colon
HCT-15 colon = tested on: HCT-15 colon
HL-60(TB) leukemia = tested on: HL-60(TB) leukemia
HOP-62 NSCLC = tested on: HOP-62 NSCLC
HOP-92 NSCLC = tested on: HOP-92 NSCLC
HS 578T breast = tested on: HS 578T breast
HT29 colon = tested on: HT29 colon
IGROV1 ovarian = tested on: IGROV1 ovarian
K-562 leukemia = tested on: K-562 leukemia
KM12 colon = tested on: KM12 colon
LOX IMVI melanoma = tested on: LOX IMVI melanoma
M14 melanoma = tested on: M14 melanoma
MALME-3M melanoma = tested on: MALME-3M melanoma
MCF7 breast = tested on: MCF7 breast
MDA-MB-231 breast = tested on: MDA-MB-231 breast
MOLT-4 leukemia = tested on: MOLT-4 leukemia
NCI-H226 lung = tested on: NCI-H226 lung
NCI-H23 lung = tested on: NCI-H23 lung
NCI-H460 lung = tested on: NCI-H460 lung
NCI-H522 lung = tested on: NCI-H522 lung
NCI/ADR-RES ovarian = tested on: NCI/ADR-RES ovarian
OVCAR-3 ovarian = tested on: OVCAR-3 ovarian
OVCAR-4 ovarian = tested on: OVCAR-4 ovarian
OVCAR-5 ovarian = tested on: OVCAR-5 ovarian
OVCAR-8 ovarian = tested on: OVCAR-8 ovarian
PC-3 prostate = tested on: PC-3 prostate
RPMI-8226 leukemia = tested on: RPMI-8226 leukemia
RXF 393 renal = tested on: RXF 393 renal
SF-268 CNS = tested on: SF-268 CNS
SF-295 CNS = tested on: SF-295 CNS
SF-539 CNS = tested on: SF-539 CNS
SK-MEL-2 melanoma = tested on: SK-MEL-2 melanoma
SK-MEL-28 melanoma = tested on: SK-MEL-28 melanoma
SK-MEL-5 melanoma = tested on: SK-MEL-5 melanoma
SK-OV-3 ovarian = tested on: SK-OV-3 ovarian
SN12C renal = tested on: SN12C renal
SNB-19 CNS = tested on: SNB-19 CNS
SNB-75 CNS = tested on: SNB-75 CNS
SR leukemia = tested on: SR leukemia
SW-620 colon = tested on: SW-620 colon
T-47D breast = tested on: T-47D breast
TK-10 renal = tested on: TK-10 renal
U251 CNS = tested on: U251 CNS
UACC-257 melanoma = tested on: UACC-257 melanoma
UACC-62 melanoma = tested on: UACC-62 melanoma

CN(C)c1ccc2[nH]c3c(C(N)=O)cc(=O)c(=O)c=3oc2c1
GI50 (786-0 renal): 3.19 µM
TGI (786-0 renal): 22.2 µM
GI50 (A498 renal): 2.68 µM
TGI (A498 renal): 9.5 µM
GI50 (A549 NSCLC): 3.19 µM
TGI (A549 NSCLC): > 100 µM
GI50 (ACHN renal): 0.767 µM
TGI (ACHN renal): 8.98 µM
GI50 (CAKI-1 renal): 3.48 µM
TGI (CAKI-1 renal): > 100 µM
GI50 (CCRF-CEM leukemia): 0.472 µM
TGI (CCRF-CEM leukemia): > 100 µM
GI50 (COLO 205 colon): 3.5 µM
TGI (COLO 205 colon): > 100 µM
GI50 (DU-145 prostate): 4.6 µM
TGI (DU-145 prostate): > 100 µM
GI50 (EKVX NSCLC): 3.36 µM
TGI (EKVX NSCLC): 61.6 µM
GI50 (HCC-2998 colon): 4.9 µM
TGI (HCC-2998 colon): > 100 µM
GI50 (HCT-116 colon): 0.304 µM
TGI (HCT-116 colon): 1.22 µM
GI50 (HCT-15 colon): 0.766 µM
TGI (HCT-15 colon): > 100 µM
GI50 (HL-60(TB) leukemia): 0.668 µM
TGI (HL-60(TB) leukemia): 4.04 µM
GI50 (HOP-62 NSCLC): 2.42 µM
TGI (HOP-62 NSCLC): > 100 µM
GI50 (HOP-92 NSCLC): 1.72 µM
TGI (HOP-92 NSCLC): 8.58 µM
GI50 (HS 578T breast): 0.973 µM
TGI (HS 578T breast): 8.31 µM
GI50 (HT29 colon): 3.66 µM
TGI (HT29 colon): > 100 µM
GI50 (IGROV1 ovarian): 1.95 µM
TGI (IGROV1 ovarian): 14.2 µM
GI50 (K-562 leukemia): 0.358 µM
TGI (K-562 leukemia): > 100 µM
GI50 (KM12 colon): 3.33 µM
TGI (KM12 colon): > 100 µM
GI50 (LOX IMVI melanoma): 0.334 µM
TGI (LOX IMVI melanoma): > 100 µM
GI50 (M14 melanoma): 2.93 µM
TGI (M14 melanoma): > 100 µM
GI50 (MALME-3M melanoma): 1.81 µM
TGI (MALME-3M melanoma): 4.45 µM
GI50 (MCF7 breast): 1.64 µM
TGI (MCF7 breast): 8.64 µM
GI50 (MDA-MB-231 breast): 1.7 µM
TGI (MDA-MB-231 breast): 8.67 µM
GI50 (MOLT-4 leukemia): 0.861 µM
TGI (MOLT-4 leukemia): 8.53 µM
GI50 (NCI-H226 lung): 4.74 µM
TGI (NCI-H226 lung): > 100 µM
GI50 (NCI-H23 lung): 1.1 µM
TGI (NCI-H23 lung): 25.8 µM
GI50 (NCI-H460 lung): 2.57 µM
TGI (NCI-H460 lung): > 100 µM
GI50 (NCI-H522 lung): 0.687 µM
TGI (NCI-H522 lung): 8.24 µM
GI50 (NCI/ADR-RES ovarian): 1.81 µM
TGI (NCI/ADR-RES ovarian): 8.39 µM
GI50 (OVCAR-3 ovarian): 0.508 µM
TGI (OVCAR-3 ovarian): 6.85 µM
GI50 (OVCAR-4 ovarian): 1.67 µM
TGI (OVCAR-4 ovarian): 6.42 µM
GI50 (OVCAR-5 ovarian): 3.36 µM
TGI (OVCAR-5 ovarian): 17.2 µM
GI50 (OVCAR-8 ovarian): 1.05 µM
TGI (OVCAR-8 ovarian): > 100 µM
GI50 (PC-3 prostate): 2.77 µM
TGI (PC-3 prostate): > 100 µM
GI50 (RPMI-8226 leukemia): 0.502 µM
TGI (RPMI-8226 leukemia): > 100 µM
GI50 (RXF 393 renal): 1.89 µM
TGI (RXF 393 renal): 7.24 µM
GI50 (SF-268 CNS): 3.04 µM
TGI (SF-268 CNS): > 100 µM
GI50 (SF-295 CNS): 3.22 µM
TGI (SF-295 CNS): > 100 µM
GI50 (SF-539 CNS): 0.428 µM
TGI (SF-539 CNS): 4.43 µM
GI50 (SK-MEL-2 melanoma): 1.87 µM
TGI (SK-MEL-2 melanoma): 5.34 µM
GI50 (SK-MEL-28 melanoma): 4.2 µM
TGI (SK-MEL-28 melanoma): > 100 µM
GI50 (SK-MEL-5 melanoma): 1.8 µM
TGI (SK-MEL-5 melanoma): 3.55 µM
GI50 (SK-OV-3 ovarian): 3.54 µM
TGI (SK-OV-3 ovarian): > 100 µM
GI50 (SN12C renal): 1.95 µM
TGI (SN12C renal): 7.23 µM
GI50 (SNB-19 CNS): 2.34 µM
TGI (SNB-19 CNS): 9.81 µM
GI50 (SNB-75 CNS): 2.5 µM
TGI (SNB-75 CNS): 9.19 µM
GI50 (SR leukemia): 0.942 µM
TGI (SR leukemia): 8.49 µM
GI50 (SW-620 colon): 2.02 µM
TGI (SW-620 colon): > 100 µM
GI50 (T-47D breast): 1.81 µM
TGI (T-47D breast): > 100 µM
GI50 (TK-10 renal): 3.73 µM
TGI (TK-10 renal): > 100 µM
GI50 (U251 CNS): 1.8 µM
TGI (U251 CNS): 9.8 µM
GI50 (UACC-257 melanoma): 1.77 µM
TGI (UACC-257 melanoma): 6.18 µM
GI50 (UACC-62 melanoma): 1.74 µM
TGI (UACC-62 melanoma): 5.32 µM
